According to patent US20100056526A1, “HETEROMONOCYCLIC COMPOUND AND USE THEREOF” (Takeda Pharmaceutical Company Limited, priority 2006, published 2010):
Structures can show the parent of a compound that is named as a salt. Where two headings read alike, the source gives them in different places.

What was measured:
[1] = target: T1, human AT1 receptor (Homo sapiens, UniProt P30556); assay: Binding assay using human AT1 receptor-expressing CHO-K1 cell membrane fraction ([125I]-angiotensin II); conditions: 22.5 pM [125I]-angiotensin II, 9 μg AT1 membrane, 1 hr room temperature; read-out: AT1 receptor binding inhibitory action (IC50 (nM))
T1 construct: expressed in transfected cells; host or cells: CHO-K1
T1 sequence (P30556 1-359): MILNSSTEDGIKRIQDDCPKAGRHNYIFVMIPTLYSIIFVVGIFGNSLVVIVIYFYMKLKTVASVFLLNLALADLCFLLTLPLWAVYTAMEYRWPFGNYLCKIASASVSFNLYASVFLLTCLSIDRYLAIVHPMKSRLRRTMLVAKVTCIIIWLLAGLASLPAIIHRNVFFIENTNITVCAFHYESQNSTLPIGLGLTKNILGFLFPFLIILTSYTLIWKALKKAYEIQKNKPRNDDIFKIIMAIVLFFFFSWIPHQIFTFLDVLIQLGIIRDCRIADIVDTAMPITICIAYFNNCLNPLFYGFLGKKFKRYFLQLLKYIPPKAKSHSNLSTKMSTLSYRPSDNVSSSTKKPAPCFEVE
Method: The membrane fraction for human AT1 receptor binding assay was prepared as follows. CHO-K1 cell capable of stable expression of human AT1 receptor was cultured, recovered, suspended in homogenize buffer (10 mM NaHCO3 (pH 7.4), 5 mM EDTA, 1×Complete EDTA free) [manufactured by Roche, Switzerland], and homogenized. The homogenate was centrifuged at low-speed (900×g, 10 min, 4° C.), and the supernatant was recovered and ultracentrifuged (90,000×g, 1 hr, 4° C.). The supernatant was discarded, and the pellets were resuspended in resuspension buffer (50 mM Tris (pH 7.4), 1 mM EDTA, 1×Complete EDTA free).
The binding assay was performed in the presence of 22.5 pM [^125I]-angiotensin II [manufactured by PerkinElmer, USA], 9 μg of AT1 membrane and test compound in 100 μL (total reaction volume) of reaction buffer (50 mM Tris (pH 7.4), 10 mM MgCl2 supplemented or not supplemented with 0.3 mg/mL fatty acid-free bovine serum albumin [manufactured by Wako Pure Chemical Industries, Ltd., Japan]). The reaction mixture was incubated in 96 well polypropylene plate for 1 hr at room temperature, and the reaction was quenched by rapid filtration (96 well cell harvester) through a GF/C filter treated with wash buffer (50 mM Tris (pH 7.4)). Subsequently, the filter was washed 5 times with 0.3 mL of ice-cooled wash buffer. The filter was air-dried, and [^125I]-angiotensin II binding radioactivity was assayed with Top Count scintillation counter. Total binding was measured in the presence of 1% DMSO and nonspecific binding was measured in the presence of 1 μM CV-11974. The binding data was analyzed by GraphPad Prism program and the IC50 value (compound concentration showing 50% of the maximum value of inhibition percent) of the test compound was calculated.

[2] = target: T2, PPARγ (Homo sapiens, UniProt P37231); assay: Evaluation of PPARγ activating action (luciferase reporter in PPARγ:RXRα:4ERPP/CHO-K1 cells); format: cell-based; conditions: CHO-K1, 24 h, read-out: PPARγ activating action (activation % (10^−6 M))
T2 construct: expressed in transfected cells; host or cells: CHO-K1
T2 sequence (P37231 1-477 isoform P37231-2): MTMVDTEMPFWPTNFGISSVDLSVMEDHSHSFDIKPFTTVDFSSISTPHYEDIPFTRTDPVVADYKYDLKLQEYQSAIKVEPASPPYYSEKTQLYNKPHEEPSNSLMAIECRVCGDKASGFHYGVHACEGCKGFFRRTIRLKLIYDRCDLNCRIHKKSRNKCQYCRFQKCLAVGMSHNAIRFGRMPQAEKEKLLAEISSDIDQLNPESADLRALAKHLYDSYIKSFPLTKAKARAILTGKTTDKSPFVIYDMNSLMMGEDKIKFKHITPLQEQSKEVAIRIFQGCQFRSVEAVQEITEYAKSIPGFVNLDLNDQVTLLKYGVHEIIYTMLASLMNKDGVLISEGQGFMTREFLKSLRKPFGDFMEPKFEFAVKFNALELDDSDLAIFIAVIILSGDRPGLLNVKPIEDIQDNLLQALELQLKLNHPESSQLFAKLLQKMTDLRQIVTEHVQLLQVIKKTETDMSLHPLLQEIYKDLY
T2 sequence (P19793 1-462 partner): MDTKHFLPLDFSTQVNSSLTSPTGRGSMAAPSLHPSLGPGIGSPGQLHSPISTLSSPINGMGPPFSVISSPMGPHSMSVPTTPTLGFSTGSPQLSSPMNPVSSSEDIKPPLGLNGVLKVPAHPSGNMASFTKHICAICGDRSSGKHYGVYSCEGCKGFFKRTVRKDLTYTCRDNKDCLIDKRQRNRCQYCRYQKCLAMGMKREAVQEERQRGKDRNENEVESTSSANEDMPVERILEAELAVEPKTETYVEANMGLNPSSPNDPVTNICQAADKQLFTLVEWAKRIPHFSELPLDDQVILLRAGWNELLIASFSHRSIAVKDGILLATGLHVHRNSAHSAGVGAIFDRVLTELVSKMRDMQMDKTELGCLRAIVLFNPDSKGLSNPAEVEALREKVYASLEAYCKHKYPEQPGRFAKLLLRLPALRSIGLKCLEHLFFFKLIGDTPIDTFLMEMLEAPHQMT
Method: PPARγ:RXRα:4ERPP/CHO-K1 cells obtained in the following Reference Example 5 were cultured in F12 medium [manufactured by INVITROGEN, USA] containing 10% fetal bovine serum [manufactured by MOREGATE, Australia], seeded in a 96-well half area white plate [manufactured by Corning Coster Corporation, USA] at the density of 5×10^3 cells/well and cultured in a CO2 gas incubator at 37° C. overnight.
Then the medium was removed from the 96-well half area white plate, 45 μl of Ham's F12 medium containing 0.1% fatty acid-free bovine serum albumin (BSA) and 5 μl of test compound were added, and the cells were cultured in a CO2 gas incubator at 37° C. for 1 day. The medium was removed and 20 μl of PicaGene 7.5 [manufactured by TOYO INK MFG. CO., LTD.,.Japan] diluted 2-fold with HBSS (HANKS' BALANCED SALT SOLUTION) [manufactured by BIO WHITTAKER, USA] was added. After stirring, the luciferase activity was determined using 1420 ARVO Multilabel Counter [manufactured by PerkinElmer, USA].
The percent (%) was calculated from the luciferase activity of each test compound when the luciferase activity of the control compound (compound X: 5-[3-(4-{[2-(2-furyl)-5-methyl-1,3-oxazol-4-yl]methoxy}-3-methoxyphenyl)propyl]-1,3-oxazolidine-2,4-dione) (1 μM) was 100% and that of the test compound non-administration group was 0%.
A CHO-K1 cell cultured in a 150 cm^2 cell culture flask [manufactured by Corning Costar Corporation, USA] containing Ham's F12 medium [manufactured by INVITROGEN, USA] supplemented with 10% fetal bovine serum [manufactured by INVITROGEN, USA] was scraped by treating with 0.5 g/L trypsin-0.2 g/L EDTA (ethylenediaminetetraacetic acid) [manufactured by Life Technologies, Inc., USA], and then the cell was washed with PBS (Phosphate-buffered saline) [manufactured by INVITROGEN, USA], centrifuged (1000 rpm, 5 minutes) and suspended in PBS. Subsequently, DNA was introduced into the cell under the conditions shown below using GENE PULSER [manufactured by Bio-Rad Laboratories, USA].
Namely, to a cuvette having a 0.4 cm gap were added 8×10^6 cells and 10 μg of plasmid pVgRXR2-hPPARγ obtained in Reference Example 4 and 10 μg of reporter plasmid pGL3-4ERPP-TK neo obtained in Reference Example 3, which was subjected to electroporation at the voltage of 0.25 kV under the capacitance of 960 μF. Subsequently, the cell was transferred into a F12 medium containing 10% fetal bovine serum and cultured for 24 hours, and then the cell was scraped again and centrifuged, and then suspended in Ham's F12 medium containing 10% fetal bovine serum supplemented with 500 μg/ml of Geneticin [manufactured by INVITROGEN, USA] and 250 μg/ml of Zeocin [manufactured by INVITROGEN, USA]. The obtained suspension was diluted to the density of 10^4 cells/ml and inoculated in a 96-well plate [manufactured by Corning Costar Corporation, USA], which was cultured in a CO2 gas incubator at 37° C., whereby obtaining a Geneticin- and Zeocin-resistant transformant.
Subsequently, after the transformant cell line thus obtained was cultured in a 24-well plate [manufactured by Corning Costar Corporation, USA], a cell line in which the luciferase was expressed and induced, i.e., PPARγ:RXRα:4ERPP/CHO-K1 cell was selected by the addition of 10 μM pioglitazone hydrochloride.

[3] = test compound 10^−6 M, luciferase activity relative to control compound X (1 μM) = 100%, non-administration group = 0%

CCCc1nc(CC)n(-c2ccc(O[C@@H]3C[C@@H](C)O[C@@H](C)C3)cc2)c(=O)c1Cc1ccc(-c2ccccc2-c2noc(=O)[nH]2)cc1 [Example 417, 3-(4-{[(2R,4s,6S)-2,6-dimethyltetrahydro-2H-pyran-4-yl]oxy}phenyl)-2-ethyl-5-{[2′-(5-oxo-4,5-dihydro-1,2,4-oxadiazol-3-yl)biphenyl-4-yl]methyl}-6-propylpyrimidin-4(3H)-one]
IC50 [1]: 1.6 nM | activation at 1 µM [2, 3]: 33.7%

CCCCc1nc(C)n(-c2cccc(C(C)(C)O)c2)c(=O)c1Cc1ccc(-c2ccccc2-c2noc(=O)[nH]2)cc1 [Example 217, 6-butyl-3-[3-(1-hydroxy-1-methylethyl)phenyl]-2-methyl-5-{[2′-(5-oxo-4,5-dihydro-1,2,4-oxadiazol-3-yl)biphenyl-4-yl]methyl}pyrimidin-4(3H)-one]
IC50 [1]: 1.1 nM | activation at 1 µM [2, 3]: 26.8%

CCCCc1nc(C)n(Cc2c(F)cccc2F)c(=O)c1Cc1ccc(-c2ccccc2-c2noc(=O)[nH]2)cc1 [Example 165, 6-butyl-3-(2,6-difluorobenzyl)-2-methyl-5-{[2′-(5-oxo-4,5-dihydro-1,2,4-oxadiazol-3-yl)biphenyl-4-yl]methyl}pyrimidin-4(3H)-one]
IC50 [1]: 1.7 nM | activation at 1 µM [2, 3]: 59%

CCCc1nc(CC)c(-c2ccc(OC(C)C)nc2)c(=O)n1Cc1ccc(-c2ccccc2-c2noc(=O)[nH]2)cc1 [Example 483, 6-ethyl-5-(6-isopropoxypyridin-3-yl)-3-{[2′-(5-oxo-4,5-dihydro-1,2,4-oxadiazol-3-yl)biphenyl-4-yl]methyl}-2-propylpyrimidin-4(3H)-one]
IC50 [1]: 2.4 nM | activation at 1 µM [2, 3]: 31.5%

CCCCc1nc(COC)n(CC(C)(C)C)c(=O)c1Cc1ccc(-c2ccccc2-c2noc(=O)[nH]2)cc1 [Example 51, 6-butyl-3-(2,2-dimethylpropyl)-2-(methoxymethyl)-5-{[2′-(5-oxo-4,5-dihydro-1,2,4-oxadiazol-3-yl)biphenyl-4-yl]methyl}pyrimidin-4(3H)-one]
IC50 [1]: 1.5 nM | activation at 1 µM [2, 3]: 19.6%

CCCCc1nc(C)c(C(O)c2ccccc2)c(=O)n1Cc1ccc(-c2ccccc2-c2noc(=O)[nH]2)cc1 (centres unmarked) [Example 452, 2-butyl-5-[hydroxy(phenyl)methyl]-6-methyl-3-{[2′-(5-oxo-4,5-dihydro-1,2,4-oxadiazol-3-yl)biphenyl-4-yl]methyl}pyrimidin-4(3H)-one]
IC50 [1]: 2.1 nM | activation at 1 µM [2, 3]: 52.9%

CCCc1nc(CC)c(Oc2ccc(CC)cc2)c(=O)n1Cc1ccc(-c2ccccc2-c2noc(O)n2)cc1 [Example 480, 6-ethyl-5-(4-ethylphenoxy)-3-{[2′-(5-oxo-4,5-dihydro-1,2,4-oxadiazol-3-yl)biphenyl-4-yl]methyl}-2-propylpyrimidin-4(3H)-one]
IC50 [1]: 3.2 nM | activation at 1 µM [2, 3]: 30.8%

CCCc1nc(C)n(-c2ccc(OC(C)C)cc2)c(=O)c1Cc1ccc(-c2ccccc2-c2noc(=O)[nH]2)cc1Cl [Example 396, 5-{[3-chloro-2′-(5-oxo-4,5-dihydro-1,2,4-oxadiazol-3-yl)biphenyl-4-yl]methyl}-3-(4-isopropoxyphenyl)-2-methyl-6-propylpyrimidin-4(3H)-one]
IC50 [1]: 2.2 nM | activation at 1 µM [2, 3]: 50.6%

CCCc1nc(CC)n(-c2ccc3c(c2)CC(C)O3)c(=O)c1Cc1ccc(-c2ccccc2-c2noc(O)n2)cc1 (centres unmarked) [Example 312, 2-ethyl-3-(2-methyl-2,3-dihydro-1-benzofuran-5-yl)-5-{[2′-(5-oxo-4,5-dihydro-1,2,4-oxadiazol-3-yl)biphenyl-4-yl]methyl}-6-propylpyrimidin-4(3H)-one potassium salt]
IC50 [1]: 1.6 nM | activation at 1 µM [2]: 50.3%

CCCc1nc(CC)n(-c2ccc(OC3CCOC(C)(C)C3)cc2)c(=O)c1Cc1ccc(-c2ccccc2-c2noc(=O)[nH]2)cc1 (centres unmarked) [Example 413, 3-{4-[(2,2-dimethyltetrahydro-2H-pyran-4-yl)oxy]phenyl}-2-ethyl-5-{[2′-(5-oxo-4,5-dihydro-1,2,4-oxadiazol-3-yl)biphenyl-4-yl]methyl}-6-propylpyrimidin-4(3H)-one]
IC50 [1]: 1.7 nM | activation at 1 µM [2, 3]: 18.9%
